From patent publication US20200147058A1, “KRAS INHIBITOR FOR USE IN TREATING CANCER” (Friedrich-Alexander-Universitat Erlangen-Numberg, priority 2016, published 2020)

Assays:
Hep3B = assay: real-time cell proliferation assay; assay type: cell-based, human; conditions: DR doses
Htz19 melanoma cells = assay: FACS analysis of apoptosis; assay type: cell-based, human; conditions: 5 hours, 5 μM DR
Mel Im cells [1] = assay: three-dimensional, anchorage-independent colony-forming assay; assay type: cell-based, human; conditions: Mel Im (BRAFi primary sensitive); DR 5 μM, PLX 10 μM, alone or combined
[2] = test system: murine hepatoma cell line Hepa129; assay: viable cells counted by microscopy; assay type: cell-based; conditions: 24 hours
Experimental: FIGS. 12A through 12C depict Murine Hepatoma Cells (Hepta129) Sensitive for Small Molecule KRAS Inhibition in vitro and in vivo. […] is exemplary images (4-fold) depicting murine Hepatoma Cells (Hepa129) treated for 24 hours with Deltarasin (DR) and/or Sorafenib (SF) using different concentration of inhibitors.

[3] = test system: normal human epidermal melanocytes (NHEM); assay: toxicity in non-tumor cells (images, LDH); assay type: cell-based; conditions: doses up to 20 μM
Text: (§1) FIGS. 4A through 4H depict that small Molecule KRAS Inhibition Reduces Proliferation and Induces Apoptosis in Melanoma. FIGS. 4A and 4B show proliferation (slope of cell index) of Mel Juso (FIG. 4A) and Mel Im (FIG. 4B) cells treated with DMSO and different concentrations of the KRAS small molecule inhibitor Deltarasin (DR). The cell index as dimensionless parameter for cell proliferative ability was used to determine the half maximal inhibitory concentration (IC50, small graphs) of DR. […] FIG. 4D illustrates exemplary images of different melanoma cell lines (Mel Im, Mel Juso and Mel Ei) treated with 5 μM DR or 5 μM DMSO, respectively, for 24 hours. FIGS. 4E and 4F show images of fibroblast cell lines derived from two different donors (F1, F2) and melanocytes (NHEM) treated DR (20 μM, 48 hours) or DMSO (FIG. 4E), and lactate dehydrogenase (LDH) quantification (FIG. 4F) in cell supernatants (optic density, OD) of NHEM after treatment with low dose DMSO, DR (5 μM), and DR (10 μM), respectively.

Mel Juso cells [4] = assay: FACS analysis of apoptosis (Annexin / propidium iodide); assay type: cell-based, human
Text: as §1
(§2) FIGS. 5A through 5D show time-dependent measurement of colony diameters (exemplary data in top panels) in three-dimensional, anchorage-independent “colony-forming” assays (FIGS. 5A and 5B: Mel Im, FIGS. 5C and 5D: Mel Juso). Exemplary Images (middle) and corresponding quantification of colony diameters (bottom panels, summarized data of n=3 experiments at day 19 after seeding) are also depicted. Treatments were performed in four different groups (10 μM DMSO, 5 μM Deltarasin=DR, M PLX-4032=PLX (vemurafenib), or combination of 10 μM PLX+[…]). Effects on i) colony formation (FIGS. 5A and 5C, treatment at day 1) and ii) proliferation of pre-formed colonies (FIGS. 5B and 5D, treatment at day 7 and 13) were analyzed. […] FIG. 5F show images of PLX-primary resistant Mel Juso cells treated with DMSO, DR (5 μM), high dose PLX (20 μM) and a combination of 5 μM DR+10 μM PLX for 24 hours. […] Cells were treated for 5 hours with DMSO, 5 μM Deltarasin (DR), 10 μM PLX, or a combination of 10 μM PLX and 5 μM DR. According to exemplary images for Annexin and propidium iodide (PI) staining are depicted for Mel Im. (FIG. 5H) Mel Im and Mel Juso were transfected with control si-RNA (si-CTR) or with si-KRAS (si-KR). Two subgroups (blue and red) were additionally treated with 10 μM PLX (Vemurafenib) for 24 hours, with subsequent flow cytometric quantification of tumor cell apoptosis according to FIG. 5G. Exemplary images for Annexin and propidium iodide (PI) staining are depicted for Mel Im.

Mel Im cells [5] = assay: as above; assay type: cell-based, human
Text: as §1, §2

Mel Juso cells [6] = assay: long-term treatment, emergence of surviving tumor cells and drug resistance; assay type: cell-based, human; conditions: 28 days, IC50 or 2×IC50
[7] = test system: human fibroblast cell lines; assay: toxicity in non-tumor cells (images); assay type: cell-based; conditions: doses up to 20 μM, 48 hours
Text: as §1

HepG2 hepatoma cells = assay: Annexin V / PI staining with FACS analysis of apoptosis; assay type: cell-based, human; conditions: 8 μM
Mel Im cells [8] = assay: long-term treatment, emergence of surviving tumor cells and drug resistance; assay type: cell-based, human; conditions: 28 days, IC50 or 2×IC50
Text: as §1
FIGS. 6A through 6H depict that KRASi Prevents Emergence of Resistance and KRAS Expression is Regulated Dynamically in Acquired Resistance to BRAFi. […] Asterisks indicate significant differences (p<0.05) as compared to according control (0 μM PLX). […] Densitometric values (DM) are also shown, representing relative quantifications. […]

HCC tumor cells = assay: tumor cell toxicity in HCC; assay type: cell-based, human; conditions: higher doses of DR (>8 μM)
Hep3B cells = assay: Western blot pERK- and pAKT protein levels; assay type: cell-based, human; conditions: Deltarasin vs DMSO
Mel Juso cells [9] = assay: three-dimensional, anchorage-independent colony-forming assay; assay type: cell-based, human; conditions: Mel Juso (BRAFi primary resistant); DR 5 μM, PLX 10 μM, alone or combined
Text: FIGS. 5A through 5D show time-dependent measurement of colony diameters (exemplary data in top panels) in three-dimensional, anchorage-independent “colony-forming” assays (FIGS. 5A and 5B: Mel Im, FIGS. 5C and 5D: Mel Juso). Exemplary Images (middle) and corresponding quantification of colony diameters (bottom panels, summarized data of n=3 experiments at day 19 after seeding) are also depicted. […] Effects on i) colony formation (FIGS. 5A and 5C, treatment at day 1) and ii) proliferation of pre-formed colonies (FIGS. 5B and 5D, treatment at day 7 and 13) were analyzed. […] Cells were treated for 5 hours with DMSO, 5 μM Deltarasin (DR), 10 μM PLX, or a combination of 10 μM PLX and 5 μM DR. […] (FIG. 5H) Mel Im and Mel Juso were transfected with control si-RNA (si-CTR) or with si-KRAS (si-KR). Two subgroups (blue and red) were additionally treated with 10 μM PLX (Vemurafenib) for 24 hours, with subsequent flow cytometric quantification of tumor cell apoptosis according to FIG. 5G.

[10] = 5 hours, 5 μM DR, 10 μM PLX or combination

c1ccc(Cn2c(-c3ccc(OC[C@H](C4CCNCC4)n4c(-c5ccccc5)nc5ccccc54)cc3)nc3ccccc32)cc1 [Deltarasin, (S)-1-Benzyl-2-(4-(2-(2-phenyl-1H-benzo[d]imidazol-1-yl)-2-(piperidin-4-yl)ethoxy)phenyl)-1H-benzo[d]imidazole]
inhibition of proliferation (Hep3B): strong dose-dependent inhibition of proliferation | apoptosis (FACS), short treatment (Htz19 melanoma cells): only slightly induced apoptosis | three-dimensional colony formation and proliferation of pre-formed colonies (Mel Im cells [1]): similarly effective as PLX | tumor cell proliferation (viable cells) [2]: marked effects | toxic effects in normal human epidermal melanocytes (NHEM) [3]: no toxic effects | induction of apoptosis (FACS) (Mel Juso cells [4]; 5 μM for 8, 16 and 24 hours): marked time-dependent induction of apoptosis | apoptosis (FACS), short treatment (Mel Juso cells [4]; [10]): did not induce apoptosis | induction of apoptosis (FACS) (Mel Im cells [5]; 5 μM for 8, 16 and 24 hours): marked time-dependent induction of apoptosis | apoptosis (FACS), short treatment (Mel Im cells [5]; [10]): only slightly induced apoptosis | surviving tumor cells after long-term treatment (Mel Juso cells [6]): no surviving tumor cells were detected | toxic effects in human fibroblast cell lines [7]: no toxic effects | induction of apoptosis (FACS) (HepG2 hepatoma cells): marked dose-dependent induction of apoptosis | surviving tumor cells after long-term treatment (Mel Im cells [8]): no surviving tumor cells were detected | tumor cell toxicity (HCC tumor cells): marked tumor cell toxicity | pERK- and pAKT protein levels (Hep3B cells): significant reduction | three-dimensional colony formation and colony proliferation (Mel Juso cells [9]): markedly inhibited
